Data on 1 compound can be found in ChEMBL document CHEMBL5154818, “Development of oxoisoaporphine derivatives with topoisomerase I inhibition and reversal of multidrug resistance in breast cancer MCF-7/ADR cells” (Eur J Med Chem, 2022).

Activity calls are given as the source filed them. No cut-off for these calls is given here.

One data set deals with A549. Kind of data set: Antiproliferative activity against human A549 cells after 48 hrs by MTT assay. In kind it is functional, cell-based. Conditions: A549, 48 h.
Another data set concerns MDA-MB-231. As to the kind of experiment: Antiproliferative activity against human MDA-MB-231 cells after 48 hrs by MTT assay. The format is functional, cell-based. The following applies: MDA-MB-231, 48 h. On the technique in general: Formazan colour is commonly taken as a measure of viable cells.
Data set [1] deals with MCF7. As to the kind of experiment: Induction of cell cycle arrest in human MCF7 cells assessed accumulation of cells at S phase at 2 uM measured after 48 hrs by propidium iodide staining based flow cytometric analysis (reference value: 27.53%). In kind it is functional. (A flow cytometer gives signals particle by particle.)
The subject of data set [2] is MCF7. As to the kind of experiment: Induction of cell cycle arrest in human MCF7 cells assessed accumulation of cells at G2 phase at 2 uM measured after 48 hrs by propidium iodide staining based flow cytometric analysis (reference value: 37.81%). The format is functional.
Data set [3] relates to MCF7. As to the kind of experiment: Induction of cell cycle arrest in human MCF7 cells assessed accumulation of cells at G1 phase at 4 uM measured after 48 hrs by propidium iodide staining based flow cytometric analysis (reference value: 45.94%). In kind it is functional.
In data set [4] the test system is MCF7. Kind of data set: Induction of cell cycle arrest in human MCF7 cells assessed accumulation of cells at S phase at 4 uM measured after 48 hrs by propidium iodide staining based flow cytometric analysis (reference value: 27.53%). In kind it is functional.
The test system of data set [5] is MCF7. Kind of data set: Induction of cell cycle arrest in human MCF7 cells assessed accumulation of cells at S phase at 8 uM measured after 48 hrs by propidium iodide staining based flow cytometric analysis (reference value: 27.53%). The format is functional.
Data set [6] deals with MCF7. As to the kind of experiment: Induction of apoptosis in human MCF7 cells assessed as increase in cleaved PARP expression 1.5 to 6 uM incubated for 24 hrs by Western blotting analysis. The format is functional, cell-based. Conditions: dose 1.5-6 µM.
A further data set has as its system NCI/ADR-RES. Kind of data set: Reversal of multidrug resistant activity in human MCF7/ADR cells after 48 hrs by MTT assay. In kind it is functional, cell-based.
The target of data set [7] is T1, ATP-dependent translocase ABCB1 (Homo sapiens, UniProt P08183). As to the kind of experiment: Inhibition of P-gp-mediated multidrug resistance in human MCF7/ADR cells at 10 to 20 uM assessed as adriamycin accumulation treated with adriamycin measured after 24 hrs by flow cytometry. The format is cell-based. The following applies: nci/adr-res, dose 10-20 µM.
Data set [8] deals with T1, ATP-dependent translocase ABCB1. Kind of data set: Inhibition of P-gp-mediated multidrug resistance in human MCF7/ADR cells at 10 to 20 uM assessed as rhodamine123 accumulation treated with rhodamine123 measured after 24 hrs by flow cytometry. The following applies: nci/adr-res, dose 10-20 µM. In kind it is cell-based.
Data set [9] shares this target. As to the kind of experiment: Inhibition of P-gp-mediated multidrug resistance in human MCF7/ADR cells assessed as decrease in P-gp expression at 10 uM measured after 24 hrs by Western blot analysis. In kind it is cell-based. The following applies: NCI/ADR-RES.
A short description of data set [10]: Toxicity in BALB/c nude mouse xenografted with human MCF7 cells assessed as spleen tissue damage at 1 to 10 mg/kg, ip administered 3 times a week for 3 weeks. The format is organism-based. Conditions: in vivo, 504 h, dose 1-10 mg/kg. Background: In xenograft studies the graft and the host belong to different species.
Data set [11] can be described thus: Toxicity in BALB/c nude mouse xenografted with human MCF7 cells assessed as increase in survival rate at 10 mg/kg, ip administered 3 times a week for 3 weeks. Conditions: in vivo, 504 h. In kind it is organism-based.

T1 sequence (P08183 whole entry): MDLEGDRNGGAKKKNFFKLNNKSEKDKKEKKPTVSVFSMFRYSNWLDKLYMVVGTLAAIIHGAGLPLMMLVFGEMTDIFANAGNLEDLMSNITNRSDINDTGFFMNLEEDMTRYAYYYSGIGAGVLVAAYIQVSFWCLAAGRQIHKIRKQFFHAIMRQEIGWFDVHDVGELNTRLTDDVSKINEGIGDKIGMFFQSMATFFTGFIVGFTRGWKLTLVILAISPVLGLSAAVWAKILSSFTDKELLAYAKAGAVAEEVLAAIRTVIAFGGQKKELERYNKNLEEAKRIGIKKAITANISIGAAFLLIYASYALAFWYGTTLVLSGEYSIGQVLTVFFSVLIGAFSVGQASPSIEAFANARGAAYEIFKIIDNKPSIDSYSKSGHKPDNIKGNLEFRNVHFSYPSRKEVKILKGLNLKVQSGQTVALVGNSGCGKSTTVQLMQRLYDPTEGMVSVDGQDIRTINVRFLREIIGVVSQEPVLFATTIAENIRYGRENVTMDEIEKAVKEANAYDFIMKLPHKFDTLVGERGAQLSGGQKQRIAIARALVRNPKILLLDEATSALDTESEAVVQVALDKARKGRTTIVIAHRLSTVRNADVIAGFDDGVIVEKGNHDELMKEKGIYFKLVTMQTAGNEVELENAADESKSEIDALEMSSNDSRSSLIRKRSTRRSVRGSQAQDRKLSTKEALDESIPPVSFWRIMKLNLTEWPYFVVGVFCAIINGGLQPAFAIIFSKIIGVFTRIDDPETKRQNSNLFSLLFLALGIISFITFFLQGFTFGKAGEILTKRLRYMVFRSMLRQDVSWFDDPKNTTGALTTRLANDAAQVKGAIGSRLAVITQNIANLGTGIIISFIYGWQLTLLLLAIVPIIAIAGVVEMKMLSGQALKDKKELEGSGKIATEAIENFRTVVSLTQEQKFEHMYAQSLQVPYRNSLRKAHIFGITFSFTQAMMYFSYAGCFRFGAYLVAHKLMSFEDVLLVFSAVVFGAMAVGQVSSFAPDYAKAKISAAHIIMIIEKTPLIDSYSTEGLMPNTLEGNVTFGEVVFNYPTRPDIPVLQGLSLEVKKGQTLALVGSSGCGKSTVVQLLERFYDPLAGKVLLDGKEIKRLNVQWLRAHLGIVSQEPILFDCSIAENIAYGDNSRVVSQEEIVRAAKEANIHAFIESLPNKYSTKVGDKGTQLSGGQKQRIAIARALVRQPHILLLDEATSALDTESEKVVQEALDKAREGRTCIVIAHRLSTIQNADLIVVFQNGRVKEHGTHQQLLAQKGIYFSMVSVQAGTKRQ

The term IC50 denotes the midpoint of a concentration-inhibition curve. For orientation: inhibition means how much of the control response was suppressed. Turning to `CC1CCCCN1CCOc1ccc2c3c(nccc13)-c1ccccc1C2=O` (centres undefined), the IC50 in the data set with A549 was determined as 2390 nM; with MDA-MB-231 it was 2420 nM; with NCI/ADR-RES, 900 nM. The Activity with MCF7 [1] is reported as 25.72%; in the data set on MCF7 [2] it was 33.28%; with MCF7 [3] it was 51.07%; in the data set on MCF7 [4], 25.08%; in the data set with MCF7 [5], 24.3%; in data set [10], “Non-Toxic”. For the same compound, the Activity result in data set [11] is reported as “Non-Toxic”. Moreover, the result in the data set on MCF7 [6] was Active. Moreover, the “inhibition (INH)” value in data set [7] and in data set [8] was “Active” in each case. Besides, in data set [9], the inhibition at 10 µM was found to be 14.9%.
